Literature values in patent US20210017202A1, “SPHINGOMYELIN-DERIVED LIPID AND METHOD FOR PRODUCING SAME” (NOF CORPORATION, priority 2018, published 2021).

Conditions: liposome with cholesterol

Molecule | amount hydrolyzed (aqueous solution at pH2, 4 hr) | amount of hydrolysate (aqueous solution at pH2, after 20 hr)
CCCCCCCCCCCCCCCCCC(=O)OC[C@H](COP(=O)([O-])OCC[N+](C)(C)C)OC(=O)CCCCCCCCCCCCCCCCC [distearoylglycerophosphocholine] | about 40% | 
sphingomyelin |  | less than 5%
